Experimental data taken from patent US20070282004A1, “Use of a Cyclopentenone Prostaglandin for Delaying for the Onset and/or Preventing the Continuation of Labour” (Imperial College Innovations Limited, priority 2003, published 2007).

Legend:
NF-κB = experiment: Western immunoblot of p65, p50, IκB in amnion cell extracts; type: cell-based, human; conditions: L−, L+ amnion cells; for IL-1β-induced p65 nuclear translocation: treated 2 h, IL-1β 15 min
Description: Western immunoblots of nuclear or cytosolic protein extracts from (A) myometrial cells, (B) L− amnion cells, and (C) L+ amnion cells treated with 15dPGJ2 or vehicle for 2 h±IL-1β stimulation (15 min). Blots probed with antibodies against p65, p50 or IκBα.
Placentae were obtained from patients at term either at elective Caesarean section prior to labour (L−) or following spontaneous labour onset and vaginal delivery (L+). Amnion cells were prepared as described in Bennett et al., (1989). Briefly, the amnion was separated from the placenta, washed 3× in PBS, cut into strips, and incubated in 0.5 mM EDTA in PBS for 15 min. The strips were washed in PBS 2× and digested with 2.5 mg/ml dispase in serum-free DMEM for 35 min at 37° C. The amnion was then shaken vigorously in DMEM, 10% FCS to dissociate the cells, the remaining strips discarded, and the cell suspension pelleted at 175 g for 10 min and cultured in DMEM, 10% FCS (Sigma), 1% L-glutamine, 1% penicillin-streptomycin.
Nuclear and cytosolic protein extracts were obtained from cultured amnion cells as described by Schreiber et al (1989). For nuclear/cytosolic fractionation, confluent cell monolayers were scraped and lysed using a buffer containing 10 mM HEPES, 10 mM KCl, 0.1 mM EDTA, 0.1 mM EGTA, 2 mM DTT, 1% (v/v) NP-40 and complete protease inhibitor tablets (CPIs, Roche), diluted to manufacturer's instructions. Cell lysates were incubated on ice for 10 min and NP-40 added to a final concentration of 1% (v/v). Lysates were vortexed for 10 secs and centrifuged for 30 secs at 4° C., 12000 g. The supernatants were retained as the cytosolic protein extracts. The pellets were resuspended in buffer containing 10 mM HEPES, 10 mM KCl, 0.1 mM EDTA, 0.1 mM EGTA, 2 mM DTT, 400 mM NaCl, 1% NP-40 (v/v) and CPIs. Samples were shaken vigorously for 15 min in an ice bath. The nuclear protein extracts were obtained in the supernatant following a 5 min centrifugation at 4° C., 12000 g.
Protein samples (20-70 μg) were mixed with Laemmli sample buffer (1:1) containing β-mercaptoethanol (5%), and boiled for 5 min. Proteins were then separated by SDS-PAGE (12-14% gels) and transferred onto PVDF membrane (Amersham Pharmacia Biotech). The membranes were blocked overnight in 5% non-fat milk prepared in PBS-T buffer, at 4° C. The blots were incubated with the primary antibody in 1% non-fat milk in PBS-T buffer for 1 h, and washed three times (10 min each) in PBS-T with vigorous shaking. The blots were then incubated with HRP-conjugated secondary antibody (diluted 1:2000 in 1% non-fat milk in PBS-T buffer) for 1 h and washed three times (10 min each) in PBS-T. Signal detection was achieved using enhanced chemi-luminescence (ECL plus system, Amersham Pharmacia Biotech) according to manufacturer's instructions.
30-50 μg protein extracts were subjected to SDS-PAGE and Western immuno-blotting. Secondary antibodies were IgG-HRP and ECL Plus detection kit (Amersham Pharmacia Biotech, Amersham Place, Little Chalfont, Bucks, HP7 9NA) was used for visualisation.

TNFα = experiment: Mouse model of preterm labour (LPS): placental TNFα by ELISA; type: in vivo; conditions: gestation day 16 mice, 6 hours after intrauterine LPS + 15d-PGJ2 vs LPS + vehicle
Description: Surgery was performed on timed pregnant MF1 mice at day 16 of gestation. After deep maternal anaesthesia was attained, a minilaparotomy was performed in the lower abdomen. The uterine horns were exposed through the incision and preterm labour was induced by the intrauterine injection of 250 μg lipopolysaccharide (LPS, Sigma) into the gravid horn. This was immediately followed by injection of 4 μg […] (Cayman), or an equal volume of vehicle (methyl acetate), at the same site. The uterus was then returned to the abdomen and the fascia and skin were closed with continuous vicryl sutures.
Mice were sacrificed 6 hours after injection of LPS±15d-PGJ2. Placentae were washed in phosphate buffered saline (PBS), flash frozen in liquid nitrogen and stored at −80° C. until further processing. Fetuses were washed in PBS, then immediately fixed in 4% parafornaldellyde for 24 h and then stored in 70% ethanol until further processing. […]
Homogenate levels of Interlekin-1β (IL-1β) and tumour necrosis factor α (TNFα) were determined in placental lysates by ELISA (R and D systems) according to manufacturers instructions. Total protein concentrations were determined for each homogenate and IL-1β and TNFα levels were expressed as pg/mg total protein. […] Phosphorylated p65 (phospho-p65) was detected by western immunoblotting using a specific antibody (Santa Cruz) and quantified by densitometric analysis.

CCCCCC=CC=C1C(=O)C=C[C@@H]1CC=CCCCC(=O)O [15d-PGJ2, 15-deoxy-Δ^12,14prostaglandin J2]
IL-1β-induced IκBα degradation (NF-κB): inhibition | IL-1β-induced IκBβ degradation (NF-κB): inhibition | IL-1β-induced p50 phosphorylation (NF-κB): inhibition | IL-1β-induced p65 nuclear translocation (NF-κB): inhibited | IL-1β-induced p65 nuclear translocation (NF-κB; listed as 15dPGJ2): inhibition | TNFα levels in placentae according to drug treatment (TNFα): not significantly altered
